Test results from ChEMBL document CHEMBL1268814, “Synthesis and biological evaluation of bivalent ligands for the cannabinoid 1 receptor” (J Med Chem, 2010).
Active and inactive are the calls of the source. No cut-off for these calls is given here.

Each compound was assayed against Cannabinoid receptor 1 (Rattus norvegicus) (UniProt P20272) (assay: Antagonist activity at rat brain CB1 receptor assessed as inhibition of [35S]GTPgammaS binding at 10000 nM). Conditions: not given.
Sequence of Cannabinoid receptor 1 (Rattus norvegicus) (P20272 whole entry): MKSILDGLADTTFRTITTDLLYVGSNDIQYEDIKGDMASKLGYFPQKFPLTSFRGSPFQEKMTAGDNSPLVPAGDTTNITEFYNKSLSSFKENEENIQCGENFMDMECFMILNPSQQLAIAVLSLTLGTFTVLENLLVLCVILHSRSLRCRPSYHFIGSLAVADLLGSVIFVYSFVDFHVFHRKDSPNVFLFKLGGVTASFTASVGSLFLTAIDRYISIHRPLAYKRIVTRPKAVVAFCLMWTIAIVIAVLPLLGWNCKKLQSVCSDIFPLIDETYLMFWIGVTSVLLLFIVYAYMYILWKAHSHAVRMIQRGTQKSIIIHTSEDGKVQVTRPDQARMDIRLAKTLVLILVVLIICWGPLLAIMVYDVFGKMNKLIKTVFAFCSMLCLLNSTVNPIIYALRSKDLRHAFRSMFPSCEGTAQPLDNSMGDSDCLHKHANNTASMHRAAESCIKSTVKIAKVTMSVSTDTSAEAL
Assay type: functional
For `Cc1c(C(=O)NCCCCCCCCCCCN(C)CCCCCCCCCCCN)nn(-c2ccc(Cl)cc2Cl)c1-c1ccc(Cl)cc1`, the Emax was -49.3%. Compound `Cc1c(C(=O)NCCNCCNC(=O)c2nn(-c3ccc(Cl)cc3Cl)c(-c3ccc(Cl)cc3)c2C)nn(-c2ccc(Cl)cc2Cl)c1-c1ccc(Cl)cc1` has an Emax of -35.9%. With `Cc1c(C(=O)NCCCCCCCNCCCCCCCNC(=O)c2nn(-c3ccc(Cl)cc3Cl)c(-c3ccc(Cl)cc3)c2C)nn(-c2ccc(Cl)cc2Cl)c1-c1ccc(Cl)cc1` the Emax was -25%. `Cc1c(C(=O)NCCCCCCCCCCCNCCCCCCCCCCCNC(=O)c2nn(-c3ccc(Cl)cc3Cl)c(-c3ccc(Cl)cc3)c2C)nn(-c2ccc(Cl)cc2Cl)c1-c1ccc(Cl)cc1` was tested, and the Emax was -12.2%. In the case of `Cc1c(C(=O)NCCCCCCCCCN(C)CCCCCCCCCN)nn(-c2ccc(Cl)cc2Cl)c1-c1ccc(Cl)cc1`, the Emax is reported as -67.9%.

The compounds below were run against T1, Cannabinoid receptor 1 (Homo sapiens, UniProt P21554) (assay: Antagonist activity at human brain CB1 receptor assessed as inhibition for [35S]GTPgammaS binding). Conditions: not given.
T1 sequence (P21554 whole entry): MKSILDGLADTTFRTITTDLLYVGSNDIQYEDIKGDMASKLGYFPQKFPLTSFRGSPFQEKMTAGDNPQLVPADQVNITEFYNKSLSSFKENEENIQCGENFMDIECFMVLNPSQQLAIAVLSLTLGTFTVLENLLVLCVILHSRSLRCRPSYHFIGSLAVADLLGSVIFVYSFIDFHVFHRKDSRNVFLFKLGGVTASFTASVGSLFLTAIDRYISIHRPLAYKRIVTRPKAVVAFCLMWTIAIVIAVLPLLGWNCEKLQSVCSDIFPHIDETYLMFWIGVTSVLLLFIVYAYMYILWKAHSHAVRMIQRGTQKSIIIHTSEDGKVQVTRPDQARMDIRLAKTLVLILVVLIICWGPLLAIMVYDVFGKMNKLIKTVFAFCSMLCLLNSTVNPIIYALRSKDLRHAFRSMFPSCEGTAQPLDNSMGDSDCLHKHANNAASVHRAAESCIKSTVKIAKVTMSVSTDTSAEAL
Assay type: functional
`Cc1c(C(=O)NCCNCCNC(=O)c2nn(-c3ccc(Cl)cc3Cl)c(-c3ccc(Cl)cc3)c2C)nn(-c2ccc(Cl)cc2Cl)c1-c1ccc(Cl)cc1` was tested, and the EC50 was 0.237 µM. For `Cc1c(C(=O)NCCCCCCCNCCCCCCCNC(=O)c2nn(-c3ccc(Cl)cc3Cl)c(-c3ccc(Cl)cc3)c2C)nn(-c2ccc(Cl)cc2Cl)c1-c1ccc(Cl)cc1`, the EC50 was 0.179 µM. Compound `Cc1c(C(=O)NCCCCCCCCCCCNCCCCCCCCCCCNC(=O)c2nn(-c3ccc(Cl)cc3Cl)c(-c3ccc(Cl)cc3)c2C)nn(-c2ccc(Cl)cc2Cl)c1-c1ccc(Cl)cc1` has an EC50 greater than 25 µM.

Each compound was assayed against Cannabinoid receptor 1 (Rattus norvegicus, UniProt P20272) (assay: Antagonist activity at rat brain CB1 receptor assessed as inhibition of [35S]GTPgammaS binding). Conditions: not given.
Sequence of Cannabinoid receptor 1 (Rattus norvegicus, UniProt P20272) (P20272 whole entry): as the sequence (P20272 whole entry) above
Assay type: functional
For `Cc1c(C(=O)NCCCCCCCCCCCN(C)CCCCCCCCCCCN)nn(-c2ccc(Cl)cc2Cl)c1-c1ccc(Cl)cc1`, the EC50 was 8.77 µM. With `Cc1c(C(=O)NCCNCCNC(=O)c2nn(-c3ccc(Cl)cc3Cl)c(-c3ccc(Cl)cc3)c2C)nn(-c2ccc(Cl)cc2Cl)c1-c1ccc(Cl)cc1` the EC50 was greater than 10 µM. For `Cc1c(C(=O)NCCCCCCCNCCCCCCCNC(=O)c2nn(-c3ccc(Cl)cc3Cl)c(-c3ccc(Cl)cc3)c2C)nn(-c2ccc(Cl)cc2Cl)c1-c1ccc(Cl)cc1`, the EC50 was 1.19 µM. In the case of `Cc1c(C(=O)NCCCCCCCCCCCNCCCCCCCCCCCNC(=O)c2nn(-c3ccc(Cl)cc3Cl)c(-c3ccc(Cl)cc3)c2C)nn(-c2ccc(Cl)cc2Cl)c1-c1ccc(Cl)cc1`, the EC50 is reported as greater than 10 µM. For `Cc1c(C(=O)NCCCCCCCCCN(C)CCCCCCCCCN)nn(-c2ccc(Cl)cc2Cl)c1-c1ccc(Cl)cc1`, the EC50 was 3.4 µM.

The compounds below were run against T1, Cannabinoid receptor 1 (assay: Antagonist activity at human brain CB1 receptor assessed as inhibition for [35S]GTPgammaS binding at 10000 nM). Conditions: not given.
Assay type: functional
Work on `Cc1c(C(=O)NCCNCCNC(=O)c2nn(-c3ccc(Cl)cc3Cl)c(-c3ccc(Cl)cc3)c2C)nn(-c2ccc(Cl)cc2Cl)c1-c1ccc(Cl)cc1` yielded an Emax of -25.5%. Compound `Cc1c(C(=O)NCCCCCCCNCCCCCCCNC(=O)c2nn(-c3ccc(Cl)cc3Cl)c(-c3ccc(Cl)cc3)c2C)nn(-c2ccc(Cl)cc2Cl)c1-c1ccc(Cl)cc1` has an Emax of -38.8%.

Each compound was assayed on Mus musculus (assay: Inhibition of compound 21-induced antinociception in mouse at 10 mg/kg, ip administered 30 mins before compound-21 dosing by tail flick latency test). Conditions: not given.
With `Cc1c(C(=O)NCCCCCCCNCCCCCCCNC(=O)c2nn(-c3ccc(Cl)cc3Cl)c(-c3ccc(Cl)cc3)c2C)nn(-c2ccc(Cl)cc2Cl)c1-c1ccc(Cl)cc1` the inhibition was “inactive”.

The compounds below were run against T1, Cannabinoid receptor 1 (assay: not given). Conditions: CHO.
`Cc1c(C(=O)NCCCCCCCCCCCN(C)CCCCCCCCCCCN)nn(-c2ccc(Cl)cc2Cl)c1-c1ccc(Cl)cc1` gave a Ke of 206 nM. For `Cc1c(C(=O)NCCNCCNC(=O)c2nn(-c3ccc(Cl)cc3Cl)c(-c3ccc(Cl)cc3)c2C)nn(-c2ccc(Cl)cc2Cl)c1-c1ccc(Cl)cc1`, the Ke was 2700 nM. In the case of `Cc1c(C(=O)NCCCCCCCNCCCCCCCNC(=O)c2nn(-c3ccc(Cl)cc3Cl)c(-c3ccc(Cl)cc3)c2C)nn(-c2ccc(Cl)cc2Cl)c1-c1ccc(Cl)cc1`, the Ke is reported as 567 nM. Compound `Cc1c(C(=O)NCCCCCCCCCCCNCCCCCCCCCCCNC(=O)c2nn(-c3ccc(Cl)cc3Cl)c(-c3ccc(Cl)cc3)c2C)nn(-c2ccc(Cl)cc2Cl)c1-c1ccc(Cl)cc1` has a Ke greater than 10000 nM. `Cc1c(C(=O)NCCCCCCCCCN(C)CCCCCCCCCN)nn(-c2ccc(Cl)cc2Cl)c1-c1ccc(Cl)cc1` was tested, and the Ke was 141 nM.

The compounds below were run against T1, Cannabinoid receptor 1 (assay: Antagonist activity at human brain CB1 receptor by calcium mobilization assay). Conditions: read-out: pA2 (converted).
Assay type: functional
Work on `Cc1c(C(=O)NCCCCCCCCCCCN(C)CCCCCCCCCCCN)nn(-c2ccc(Cl)cc2Cl)c1-c1ccc(Cl)cc1` yielded a Kb of 0.0234 µM. `Cc1c(C(=O)NCCNCCNC(=O)c2nn(-c3ccc(Cl)cc3Cl)c(-c3ccc(Cl)cc3)c2C)nn(-c2ccc(Cl)cc2Cl)c1-c1ccc(Cl)cc1` gave a Kb of 0.0832 µM. Work on `Cc1c(C(=O)NCCCCCCCNCCCCCCCNC(=O)c2nn(-c3ccc(Cl)cc3Cl)c(-c3ccc(Cl)cc3)c2C)nn(-c2ccc(Cl)cc2Cl)c1-c1ccc(Cl)cc1` yielded a Kb of 0.00832 µM. `Cc1c(C(=O)NCCCCCCCCCCCNCCCCCCCCCCCNC(=O)c2nn(-c3ccc(Cl)cc3Cl)c(-c3ccc(Cl)cc3)c2C)nn(-c2ccc(Cl)cc2Cl)c1-c1ccc(Cl)cc1` gave a Kb of 0.0275 µM. `Cc1c(C(=O)NCCCCCCCCCN(C)CCCCCCCCCN)nn(-c2ccc(Cl)cc2Cl)c1-c1ccc(Cl)cc1` was tested, and the Kb was 0.00457 µM.

Each compound was assayed against T1, Cannabinoid receptor 1 (assay: biochemical). Conditions: not given.
Assay type: cell-based, HEK293
Compound `Cc1c(C(=O)NCCCCCCCCCCCN(C)CCCCCCCCCCCN)nn(-c2ccc(Cl)cc2Cl)c1-c1ccc(Cl)cc1` has a Ki of 0.00551 µM. `Cc1c(C(=O)NCCNCCNC(=O)c2nn(-c3ccc(Cl)cc3Cl)c(-c3ccc(Cl)cc3)c2C)nn(-c2ccc(Cl)cc2Cl)c1-c1ccc(Cl)cc1` gave a Ki of 0.094 µM. With `Cc1c(C(=O)NCCCCCCCNCCCCCCCNC(=O)c2nn(-c3ccc(Cl)cc3Cl)c(-c3ccc(Cl)cc3)c2C)nn(-c2ccc(Cl)cc2Cl)c1-c1ccc(Cl)cc1` the Ki was 0.00441 µM. `Cc1c(C(=O)NCCCCCCCCCCCNCCCCCCCCCCCNC(=O)c2nn(-c3ccc(Cl)cc3Cl)c(-c3ccc(Cl)cc3)c2C)nn(-c2ccc(Cl)cc2Cl)c1-c1ccc(Cl)cc1` gave a Ki of 0.037 µM. `Cc1c(C(=O)NCCCCCCCCCN(C)CCCCCCCCCN)nn(-c2ccc(Cl)cc2Cl)c1-c1ccc(Cl)cc1` gave a Ki of 0.00612 µM.

The compounds below were run against Cannabinoid receptor 2 (Homo sapiens, UniProt P34972) (assay: Displacement of [3H]CP55940 from human CB2 receptor expressed in CHOK1 cells). Conditions: not given.
Sequence of Cannabinoid receptor 2 (P34972 whole entry): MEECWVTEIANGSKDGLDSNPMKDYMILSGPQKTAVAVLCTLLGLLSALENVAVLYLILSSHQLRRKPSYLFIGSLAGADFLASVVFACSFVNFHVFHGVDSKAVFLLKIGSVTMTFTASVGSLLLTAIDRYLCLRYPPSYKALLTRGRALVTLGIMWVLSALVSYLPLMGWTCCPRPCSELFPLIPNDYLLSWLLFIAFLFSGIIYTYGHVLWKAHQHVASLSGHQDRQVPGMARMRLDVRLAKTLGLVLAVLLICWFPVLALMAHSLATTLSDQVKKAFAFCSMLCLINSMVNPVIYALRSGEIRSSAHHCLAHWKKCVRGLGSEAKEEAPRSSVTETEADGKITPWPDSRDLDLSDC
Assay type: cell-based, CHO-K1
In the case of `Cc1c(C(=O)NCCCCCCCCCCCN(C)CCCCCCCCCCCN)nn(-c2ccc(Cl)cc2Cl)c1-c1ccc(Cl)cc1`, the Ki is reported as 0.426 µM. In the case of `Cc1c(C(=O)NCCNCCNC(=O)c2nn(-c3ccc(Cl)cc3Cl)c(-c3ccc(Cl)cc3)c2C)nn(-c2ccc(Cl)cc2Cl)c1-c1ccc(Cl)cc1`, the Ki is reported as 1.28 µM. `Cc1c(C(=O)NCCCCCCCNCCCCCCCNC(=O)c2nn(-c3ccc(Cl)cc3Cl)c(-c3ccc(Cl)cc3)c2C)nn(-c2ccc(Cl)cc2Cl)c1-c1ccc(Cl)cc1` gave a Ki of 0.553 µM. Compound `Cc1c(C(=O)NCCCCCCCCCCCNCCCCCCCCCCCNC(=O)c2nn(-c3ccc(Cl)cc3Cl)c(-c3ccc(Cl)cc3)c2C)nn(-c2ccc(Cl)cc2Cl)c1-c1ccc(Cl)cc1` has a Ki greater than 2.5 µM. In the case of `Cc1c(C(=O)NCCCCCCCCCN(C)CCCCCCCCCN)nn(-c2ccc(Cl)cc2Cl)c1-c1ccc(Cl)cc1`, the Ki is reported as 0.265 µM.

The compounds below were run against T1, Cannabinoid receptor 1 (assay: Displacement of [3H]CP55940 from human CB1 receptor expressed in HEK293 cells). Conditions: not given.
Assay type: cell-based
With `Cc1c(C(=O)NCCCCCCCCCCCN(C)CCCCCCCCCCCN)nn(-c2ccc(Cl)cc2Cl)c1-c1ccc(Cl)cc1` the Ki was 0.0147 µM. `Cc1c(C(=O)NCCNCCNC(=O)c2nn(-c3ccc(Cl)cc3Cl)c(-c3ccc(Cl)cc3)c2C)nn(-c2ccc(Cl)cc2Cl)c1-c1ccc(Cl)cc1` gave a Ki of 0.229 µM. In the case of `Cc1c(C(=O)NCCCCCCCNCCCCCCCNC(=O)c2nn(-c3ccc(Cl)cc3Cl)c(-c3ccc(Cl)cc3)c2C)nn(-c2ccc(Cl)cc2Cl)c1-c1ccc(Cl)cc1`, the Ki is reported as 0.0123 µM. In the case of `Cc1c(C(=O)NCCCCCCCCCCCNCCCCCCCCCCCNC(=O)c2nn(-c3ccc(Cl)cc3Cl)c(-c3ccc(Cl)cc3)c2C)nn(-c2ccc(Cl)cc2Cl)c1-c1ccc(Cl)cc1`, the Ki is reported as 0.0993 µM. Compound `Cc1c(C(=O)NCCCCCCCCCN(C)CCCCCCCCCN)nn(-c2ccc(Cl)cc2Cl)c1-c1ccc(Cl)cc1` has a Ki of 0.01 µM.
